For 13 compounds, TGI and GI50 results are on record in PubChem BioAssay (NCI).

Some test systems named below: MDA-MB-435; SF-295 CNS; UACC-257 melanoma; NCI/ADR-RES ovarian; SF-268 CNS; COLO 205 colon; KM12 colon; SR leukemia; HCT-116 colon; HCC-2998 colon.
Test in all cases: NCI-60 cell line screen, 48 h

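Results reflect a 48-hour exposure of cells in 96-well plates to compound at five concentrations. GI50 marks 50% less growth. TGI marks complete inhibition of growth.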

`O=c1[nH]c(=O)n(C2CC(O)C(CO)O2)cc1OC/C=C/Cc1ccccc1` (stereo not given): the TGI in the assay with MDA-MB-435, in the assay with SF-295 CNS, with UACC-257 melanoma, with NCI/ADR-RES ovarian, in the assay on SF-268 CNS and in the assay on COLO 205 colon was greater than 100 µM each time. Also, the TGI with KM12 colon, with SR leukemia and with HCT-116 colon was greater than 100 µM throughout.

As to `O=[N+]([O-])/C(Cl)=C(/C(Cl)=C(Cl)Cl)N1CCCCC1`, the TGI was determined as 20.8 µM in the assay with MDA-MB-435; 54.3 µM in the assay with SF-295 CNS; 19.1 µM in the assay with NCI/ADR-RES ovarian; 75.1 µM in the assay on SF-268 CNS; 22.7 µM in the assay with COLO 205 colon; 33.4 µM with HCC-2998 colon. In addition, the TGI in the assay with KM12 colon amounted to 27.6 µM; in the assay on SR leukemia, 7.5 µM; in the assay on HCT-116 colon it was 18.9 µM.

As for `N#Cc1nc(CCCN2C(=O)c3ccccc3C2=O)oc1N`, the TGI in the assay with MDA-MB-435, in the assay on SF-295 CNS, in the assay with UACC-257 melanoma, with NCI/ADR-RES ovarian, with SF-268 CNS and in the assay with COLO 205 colon was greater than 100 µM in each case. Also, the TGI with HCC-2998 colon, in the assay on SR leukemia and in the assay on HCT-116 colon was greater than 100 µM in each case.

For the compound `O=C1CC(c2ccccc2Cl)C2(C(=O)NC(=O)NC2=O)C(c2ccccc2Cl)C1` (stereo not given), the TGI in the assay with MDA-MB-435, in the assay with SF-295 CNS, with UACC-257 melanoma, in the assay on NCI/ADR-RES ovarian, with SF-268 CNS and in the assay on HCC-2998 colon was greater than 100 µM in each case. Further, the TGI in the assay on KM12 colon, in the assay on SR leukemia and in the assay on HCT-116 colon was greater than 100 µM each time.

On to `CCCCCCCCCCCCOCCOCCOCCOCCOCCOCC(=O)NC(Cc1ccccc1)C(=O)Oc1ccc([N+](=O)[O-])cc1` (stereo not given), for which the TGI was greater than 100 µM in the assay with MDA-MB-435; greater than 100 µM in the assay with SF-295 CNS; greater than 100 µM in the assay on UACC-257 melanoma; greater than 100 µM with NCI/ADR-RES ovarian; greater than 100 µM in the assay with SF-268 CNS; 35.9 µM with COLO 205 colon. Also, the figures for the TGI with KM12 colon, with SR leukemia and with HCT-116 colon were greater than 100 µM, 63.9 µM and greater than 100 µM, respectively.

As to `CN(C)CCCNc1cc(O)c2c(c1O)C(=O)c1ccccc1C2=O`, the TGI with MDA-MB-435 came to 29.2 µM; in the assay with SF-295 CNS, 25.9 µM; in the assay on UACC-257 melanoma it was 26.6 µM; in the assay on NCI/ADR-RES ovarian, 15.5 µM; in the assay on SF-268 CNS, 36.4 µM; in the assay on COLO 205 colon, 24.5 µM. For the same compound, the TGI stood at 21.7 µM in the assay with KM12 colon, 15.9 µM with SR leukemia and 18.4 µM in the assay with HCT-116 colon.

As to `CCN(CCCCCCCCCCN1CC(=O)N(CCCCCCCCCCN(CC)Cc2ccccc2OC)CC1=O)Cc1ccccc1OC`, the GI50 with MDA-MB-435 is 1.31 µM; in the assay with SF-295 CNS, 1.15 µM; in the assay on UACC-257 melanoma, 1.7 µM; in the assay on NCI/ADR-RES ovarian it was 1.64 µM; in the assay with SF-268 CNS, 1.49 µM; in the assay on COLO 205 colon, 1.05 µM. Moreover, the GI50 in the assay with HCC-2998 colon was 1.46 µM; in the assay with KM12 colon it was 1.03 µM; in the assay on SR leukemia, 0.355 µM. In addition, the TGI in the assay with MDA-MB-435 was 2.96 µM; in the assay on SF-295 CNS, 3.02 µM; in the assay on UACC-257 melanoma, 3.34 µM; in the assay with NCI/ADR-RES ovarian it was 3.24 µM; in the assay on SF-268 CNS it was 2.96 µM; in the assay with COLO 205 colon, 2.52 µM. Moreover, the TGI with HCC-2998 colon was 2.9 µM; in the assay with KM12 colon it was 2.24 µM; in the assay on SR leukemia, 2.37 µM.

For the compound `N#Cc1nc(C2CCC(=O)O2)oc1N` (stereo not given), the TGI in the assay with MDA-MB-435, with SF-295 CNS, in the assay on UACC-257 melanoma, with NCI/ADR-RES ovarian, with SF-268 CNS and in the assay on COLO 205 colon was greater than 100 µM each time. The TGI with KM12 colon, with SR leukemia and with HCT-116 colon was greater than 100 µM each time.

Consider `COc1cccc(N2C(=O)CS(=O)(=O)C2c2cccc(Oc3ccccc3)c2)c1` (stereo not given), for which the TGI is greater than 100 µM in the assay on MDA-MB-435; greater than 100 µM with SF-295 CNS; 44.1 µM with UACC-257 melanoma; 77.3 µM in the assay on NCI/ADR-RES ovarian; greater than 100 µM in the assay on SF-268 CNS; 42.4 µM in the assay with COLO 205 colon. Besides, the TGI with KM12 colon was greater than 100 µM; in the assay on SR leukemia it was 13.1 µM; in the assay on HCT-116 colon, 24.7 µM.

`COc1cc(OC)cc(Oc2nc3cc(F)c(F)cc3nc2-c2ccccc2)c1`: the TGI in the assay with MDA-MB-435, with SF-295 CNS, with UACC-257 melanoma, in the assay on NCI/ADR-RES ovarian, in the assay with SF-268 CNS and in the assay with COLO 205 colon was greater than 100 µM each time. In addition, the TGI in the assay on KM12 colon, in the assay on SR leukemia and in the assay with HCT-116 colon was greater than 100 µM each time.

As for `Cn1c2c(c3ccccc31)CCN1C(=O)C34CCCC3CC21S4` (stereo not given), the TGI in the assay on MDA-MB-435, in the assay with SF-295 CNS, with UACC-257 melanoma, with NCI/ADR-RES ovarian, in the assay with SF-268 CNS and in the assay on COLO 205 colon was greater than 100 µM in each case. Further, the TGI in the assay on KM12 colon, in the assay with SR leukemia and in the assay on HCT-116 colon was greater than 100 µM throughout.

On to `CN(C)CCNc1c([N+](=O)[O-])sc2ccc(Cl)cc12`, for which the TGI with MDA-MB-435, with SF-295 CNS, with NCI/ADR-RES ovarian, in the assay with SF-268 CNS, with COLO 205 colon and in the assay on HCC-2998 colon was greater than 100 µM in each case. For the same compound, the TGI in the assay with KM12 colon and in the assay with SR leukemia was greater than 100 µM each time.

`C[N+]1(CCN=C=NC2CCCCC2)CCOCC1`: the TGI in the assay on MDA-MB-435, in the assay on SF-295 CNS, in the assay on UACC-257 melanoma, in the assay with NCI/ADR-RES ovarian, in the assay on SF-268 CNS and in the assay on COLO 205 colon was greater than 100 µM throughout. In addition, the TGI in the assay with KM12 colon, in the assay with SR leukemia and in the assay on HCT-116 colon was greater than 100 µM each time.
